Active and inactive are the calls of the source.
Tests used:
[1] = biological target: T1, Carboxy-terminal domain RNA polymerase II polypeptide A small phosphatase 1 (Homo sapiens, UniProt Q9GZU7); test: inhibitors of CTDSP1, concentration-response testing, biochemical assay, absorbance-based, actives from ultra-high-throughput screening (AID 540297); type: functional
T1 sequence (Q9GZU7 whole entry): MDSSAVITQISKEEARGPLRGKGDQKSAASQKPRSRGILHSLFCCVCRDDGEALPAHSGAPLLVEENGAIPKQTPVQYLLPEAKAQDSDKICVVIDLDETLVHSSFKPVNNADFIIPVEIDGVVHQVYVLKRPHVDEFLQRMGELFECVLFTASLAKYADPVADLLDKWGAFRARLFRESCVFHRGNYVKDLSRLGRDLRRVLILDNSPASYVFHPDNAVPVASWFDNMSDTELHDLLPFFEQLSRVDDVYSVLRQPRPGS

[2] = biological target: Phospholipase A2 (Homo sapiens, UniProt P04054); type: functional;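 also: confirmatory dose-response counterscreen on phospholipase A2, testing hits that came from an ultra-high-throughput screen for ATG4B inhibitors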
[3] = biological target: T2, Leucine aminopeptidase (Plasmodium falciparum 3D7, UniProt Q8IL11); test: P. falciparum M17LAP inhibitors, primary screen, biochemical, fluorogenic H-Leu-NHMec substrate, 1536-well (AID 1619); type: functional
T2 sequence (Q8IL11 whole entry): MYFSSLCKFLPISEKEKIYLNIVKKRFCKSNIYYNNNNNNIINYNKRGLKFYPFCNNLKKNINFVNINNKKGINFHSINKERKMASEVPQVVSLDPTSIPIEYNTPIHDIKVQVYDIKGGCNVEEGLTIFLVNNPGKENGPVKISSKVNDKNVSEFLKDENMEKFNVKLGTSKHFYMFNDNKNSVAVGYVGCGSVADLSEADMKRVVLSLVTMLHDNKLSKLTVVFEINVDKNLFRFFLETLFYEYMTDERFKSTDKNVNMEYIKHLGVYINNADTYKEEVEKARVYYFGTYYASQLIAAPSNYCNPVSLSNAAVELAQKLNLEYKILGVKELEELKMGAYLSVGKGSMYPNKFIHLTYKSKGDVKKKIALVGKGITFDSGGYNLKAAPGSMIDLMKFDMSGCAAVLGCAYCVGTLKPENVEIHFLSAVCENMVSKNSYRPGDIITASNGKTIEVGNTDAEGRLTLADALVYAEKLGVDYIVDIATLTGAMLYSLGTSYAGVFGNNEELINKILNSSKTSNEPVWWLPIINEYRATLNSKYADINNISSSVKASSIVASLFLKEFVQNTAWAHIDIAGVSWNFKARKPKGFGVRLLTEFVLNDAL

[4] = biological target: T3, Cysteine protease ATG4B (Homo sapiens, UniProt Q9Y4P1); type: functional;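 also: Fluorescence-based dose-response confirmation assay measuring inhibition of ATG4B activity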
T3 sequence (Q9Y4P1 whole entry): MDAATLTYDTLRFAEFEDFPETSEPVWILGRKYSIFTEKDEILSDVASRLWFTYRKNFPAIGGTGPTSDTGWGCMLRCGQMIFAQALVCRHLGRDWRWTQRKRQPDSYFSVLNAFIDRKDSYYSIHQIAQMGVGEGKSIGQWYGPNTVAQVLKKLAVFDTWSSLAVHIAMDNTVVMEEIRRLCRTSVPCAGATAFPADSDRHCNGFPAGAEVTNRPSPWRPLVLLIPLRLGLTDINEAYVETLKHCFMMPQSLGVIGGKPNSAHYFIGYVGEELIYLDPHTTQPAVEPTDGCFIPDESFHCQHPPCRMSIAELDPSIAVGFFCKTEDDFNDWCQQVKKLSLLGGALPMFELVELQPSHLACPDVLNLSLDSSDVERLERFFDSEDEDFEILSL

[5] = C. albicans growth with fluconazole, confirmation, fluorescence, retest (AID 2467); type: functional, cell-based
[6] = tested on: Vero; test: cells; type: functional; conditions: Chlorocebus sabaeus
[7] = biological target: ATP-dependent molecular chaperone HSP82 (Candida albicans (strain WO-1) (Yeast), UniProt C4YTQ8); test: loss of DOC-induced GRE-beta-galactosidase reporter signal, dose response, Hsp90 inhibitor project, S. cerevisiae, luminescence (AID 2400); type: functional, cell-based;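 also: beta-galactosidase luminescence from glucocorticoid response element reporter as proxy for Hsp90 function; inhibitor potency where signal loss means Hsp90 inhibition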
[8] = biological target: T4, Ubiquitin-conjugating enzyme E2 N (Homo sapiens, UniProt P61088); type: functional
T4 sequence (P61088 whole entry): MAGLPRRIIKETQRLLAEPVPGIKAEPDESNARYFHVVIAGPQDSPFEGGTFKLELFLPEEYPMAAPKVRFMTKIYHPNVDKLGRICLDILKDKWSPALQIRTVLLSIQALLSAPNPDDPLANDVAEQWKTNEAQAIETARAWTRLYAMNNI

[9] = biological target: T5, Bcl-2-related protein A1 (Mus musculus, UniProt Q07440); type: functional;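 also: confirmatory dose–response counterscreen on Bfl-1, used to check hits from a UBC13 polyubiquitin inhibitor campaign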
T5 sequence (Q07440 whole entry): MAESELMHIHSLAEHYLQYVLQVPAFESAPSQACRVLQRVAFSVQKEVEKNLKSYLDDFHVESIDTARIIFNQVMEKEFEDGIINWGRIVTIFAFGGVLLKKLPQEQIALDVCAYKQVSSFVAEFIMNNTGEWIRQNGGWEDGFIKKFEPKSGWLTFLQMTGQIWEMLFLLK

[10] = biological target: T4, Ubiquitin-conjugating enzyme E2 N; type: functional; remark: listed apart in the source
[11] = biological target: T6, Serine/threonine-protein phosphatase (Candida dubliniensis (strain CD36 / CBS 7987 / NCPF 3949 / NRRLY-17841) (Yeast), UniProt B9W6M3); test: calcineurin pathway inhibitors in yeast reporter, dose response, S. cerevisiae, CDRE-lacZ, luminescence, secondary (AID 2388); type: functional, cell-based;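 also: yeast reporter cells carrying a calcineurin-responsive lacZ construct stimulated with calcium chloride; luminescent beta-galactosidase reporter signal in whole cells rather than isolated phosphatase activity; potency for inhibition where a drop in reporter signal means calcineurin blockade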
T6 sequence (B9W6M3 whole entry): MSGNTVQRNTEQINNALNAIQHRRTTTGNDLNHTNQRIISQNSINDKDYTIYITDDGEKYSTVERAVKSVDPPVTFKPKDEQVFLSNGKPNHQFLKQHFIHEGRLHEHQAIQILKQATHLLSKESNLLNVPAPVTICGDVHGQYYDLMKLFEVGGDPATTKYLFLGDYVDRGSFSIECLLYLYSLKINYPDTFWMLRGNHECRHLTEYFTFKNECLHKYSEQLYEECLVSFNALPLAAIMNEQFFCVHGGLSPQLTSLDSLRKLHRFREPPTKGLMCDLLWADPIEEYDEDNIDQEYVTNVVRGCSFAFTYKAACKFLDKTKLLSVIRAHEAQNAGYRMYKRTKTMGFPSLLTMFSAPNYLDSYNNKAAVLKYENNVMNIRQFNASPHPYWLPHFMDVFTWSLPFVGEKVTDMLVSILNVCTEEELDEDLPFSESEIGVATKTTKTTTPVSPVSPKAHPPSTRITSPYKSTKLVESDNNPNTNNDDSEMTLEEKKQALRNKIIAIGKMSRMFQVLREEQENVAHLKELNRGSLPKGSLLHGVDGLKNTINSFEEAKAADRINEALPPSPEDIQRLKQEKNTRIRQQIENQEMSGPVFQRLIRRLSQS

[12] = NIH-3T3 fibroblast cytotoxicity, dose response, cytotoxicity control, cell-based, fluorescence, Alamar Blue, secondary assay (AID 2327); type: functional;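 also: NIH-3T3 mouse fibroblasts cultured with fluconazole at 8 µg/mL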
[13] = biological target: T7, Hexokinase-1 (Homo sapiens, UniProt P19367); test: SAR analysis of small molecule inhibitors of hexokinase domain containing I (HKDC1) in the hexokinase 1 selectivity assay. [Related pubchem assays (depositor defined):AID493160, AID493190]; type: functional
T7 sequence (P19367 whole entry): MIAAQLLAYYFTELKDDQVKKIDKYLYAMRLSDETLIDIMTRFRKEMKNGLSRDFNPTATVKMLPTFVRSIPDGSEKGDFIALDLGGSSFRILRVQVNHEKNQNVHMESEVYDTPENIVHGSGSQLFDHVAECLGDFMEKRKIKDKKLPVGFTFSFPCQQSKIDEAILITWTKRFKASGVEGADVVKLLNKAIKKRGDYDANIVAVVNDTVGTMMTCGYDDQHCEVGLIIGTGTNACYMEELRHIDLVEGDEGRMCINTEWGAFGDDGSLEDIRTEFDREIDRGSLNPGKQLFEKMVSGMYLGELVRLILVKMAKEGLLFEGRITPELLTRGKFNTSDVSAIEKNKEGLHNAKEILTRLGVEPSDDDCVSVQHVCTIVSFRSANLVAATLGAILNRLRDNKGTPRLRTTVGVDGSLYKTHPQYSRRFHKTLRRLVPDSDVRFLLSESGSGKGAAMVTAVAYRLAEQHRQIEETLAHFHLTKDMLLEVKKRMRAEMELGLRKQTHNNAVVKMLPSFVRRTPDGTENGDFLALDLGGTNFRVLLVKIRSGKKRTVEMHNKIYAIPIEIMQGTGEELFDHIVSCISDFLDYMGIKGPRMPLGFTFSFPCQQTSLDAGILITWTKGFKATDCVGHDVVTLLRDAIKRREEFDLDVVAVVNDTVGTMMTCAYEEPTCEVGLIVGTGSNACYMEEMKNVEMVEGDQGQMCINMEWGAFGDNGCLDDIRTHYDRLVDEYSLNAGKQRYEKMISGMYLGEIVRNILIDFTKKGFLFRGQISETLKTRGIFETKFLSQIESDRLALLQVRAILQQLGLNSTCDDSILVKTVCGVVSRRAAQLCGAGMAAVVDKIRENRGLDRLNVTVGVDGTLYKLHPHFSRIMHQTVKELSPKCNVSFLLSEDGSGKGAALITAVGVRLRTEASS

[14] = biological target: T8, Hexokinase HKDC1 (Homo sapiens, UniProt Q2TB90); test: SAR analysis of small molecule inhibitors of hexokinase domain containing I (HKDC1). [Related pubchem assays (depositor defined):AID493160, AID493190]; type: functional
T8 sequence (Q2TB90 whole entry): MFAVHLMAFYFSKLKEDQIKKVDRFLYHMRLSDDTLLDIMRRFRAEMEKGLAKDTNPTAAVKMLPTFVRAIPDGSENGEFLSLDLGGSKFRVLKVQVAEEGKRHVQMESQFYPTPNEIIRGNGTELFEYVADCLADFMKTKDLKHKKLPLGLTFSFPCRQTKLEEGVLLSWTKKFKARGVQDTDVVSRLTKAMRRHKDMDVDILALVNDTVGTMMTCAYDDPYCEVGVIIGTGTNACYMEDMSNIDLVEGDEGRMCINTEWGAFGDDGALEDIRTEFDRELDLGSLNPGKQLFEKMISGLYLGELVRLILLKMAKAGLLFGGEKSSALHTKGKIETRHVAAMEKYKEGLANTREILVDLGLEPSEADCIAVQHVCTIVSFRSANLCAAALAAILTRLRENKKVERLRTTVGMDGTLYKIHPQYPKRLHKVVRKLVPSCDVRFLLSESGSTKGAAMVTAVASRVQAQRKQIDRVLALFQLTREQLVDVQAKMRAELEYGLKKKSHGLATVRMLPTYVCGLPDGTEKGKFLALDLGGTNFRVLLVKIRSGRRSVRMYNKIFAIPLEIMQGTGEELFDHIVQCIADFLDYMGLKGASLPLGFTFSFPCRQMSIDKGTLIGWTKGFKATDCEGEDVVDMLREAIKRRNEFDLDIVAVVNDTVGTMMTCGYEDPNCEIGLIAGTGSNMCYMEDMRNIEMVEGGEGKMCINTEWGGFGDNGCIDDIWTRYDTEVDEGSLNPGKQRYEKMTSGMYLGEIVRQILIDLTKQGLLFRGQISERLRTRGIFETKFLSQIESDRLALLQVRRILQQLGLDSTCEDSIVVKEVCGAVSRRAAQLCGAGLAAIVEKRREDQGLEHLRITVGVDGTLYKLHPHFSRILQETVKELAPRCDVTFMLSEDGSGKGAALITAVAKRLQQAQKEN

Sequence of Phospholipase A2 (P04054 whole entry): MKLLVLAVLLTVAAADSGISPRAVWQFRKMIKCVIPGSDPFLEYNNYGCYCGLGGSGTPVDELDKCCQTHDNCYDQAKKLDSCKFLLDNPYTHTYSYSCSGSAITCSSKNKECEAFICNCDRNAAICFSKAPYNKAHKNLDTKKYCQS
Sequence of ATP-dependent molecular chaperone HSP82 (C4YTQ8 whole entry): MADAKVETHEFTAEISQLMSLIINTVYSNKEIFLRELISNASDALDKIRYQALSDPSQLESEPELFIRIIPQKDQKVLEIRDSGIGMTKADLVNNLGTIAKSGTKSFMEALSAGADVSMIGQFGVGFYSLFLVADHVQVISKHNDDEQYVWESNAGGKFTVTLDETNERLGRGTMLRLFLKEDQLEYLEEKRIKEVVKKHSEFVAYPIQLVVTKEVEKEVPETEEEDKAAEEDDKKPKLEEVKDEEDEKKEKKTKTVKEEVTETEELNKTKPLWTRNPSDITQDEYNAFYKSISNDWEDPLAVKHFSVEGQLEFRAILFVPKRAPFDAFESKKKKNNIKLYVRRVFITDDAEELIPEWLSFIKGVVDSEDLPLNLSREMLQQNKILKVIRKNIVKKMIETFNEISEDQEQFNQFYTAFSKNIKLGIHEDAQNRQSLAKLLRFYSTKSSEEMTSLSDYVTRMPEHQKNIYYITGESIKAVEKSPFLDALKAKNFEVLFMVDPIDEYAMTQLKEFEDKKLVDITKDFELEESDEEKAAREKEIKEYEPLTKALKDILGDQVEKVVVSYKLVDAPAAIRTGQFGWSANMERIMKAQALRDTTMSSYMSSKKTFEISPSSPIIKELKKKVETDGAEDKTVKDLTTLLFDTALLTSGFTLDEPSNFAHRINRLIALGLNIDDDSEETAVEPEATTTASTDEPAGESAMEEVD

Row | SMILES | IC50 [2] | IC50 [4] | IC50 [13] | IC50 [14] | also measured
1 | CCOC(=O)c1ccc(/C=C2/C=C(c3ccccc3)N(c3ccc(Cl)c(C(=O)O)c3)C2=O)cc1 | 8.04 µM (active) | 12.3 µM (active) | – | – | IC50 [1]: 5.15 µM (active); IC50 [3]: 29.5 µM (active)
2 | c1ccc(CSc2nnc3c(n2)OC(c2ccco2)Nc2ccccc2-3)cc1 (stereo not given) | 40.1 µM (inactive) | 43 µM (inactive) | – | – | –
3 | Cc1cc(C)cc(OCC(=O)NNC(=S)NC(=O)C2CC2)c1 | – | – | – | – | EC50 [5]: 0.962 µM (active); CC50 [6]: > 25 µM (active); EC50 [7]: 17.8 µM (active); IC50 [8]: 7.6 µM (active); IC50 [9]: > 20 µM (inactive); IC50 [10]: 7.38 µM (active); EC50 [11]: > 180 µM (inactive); EC50 [12]: 43.5 µM (active)
4 | CN(C)c1ccc(/C=C/c2nc3ccccc3c(=O)n2Cc2ccccc2)cc1 | – | – | > 80 µM (inactive) | > 80 µM (inactive) | –
5 | COc1cc2c(cc1OC)-c1cc(NCc3ccc4c(c3)OCO4)nc(=O)n1CC2 | – | – | > 80 µM (inactive) | > 80 µM (inactive) | –
6 | Cc1ccc(/C=C/c2nc3ccccc3c(=O)n2Cc2ccccc2)cc1 | – | – | > 80 µM (inactive) | > 80 µM (inactive) | –

Reference: ChEMBL document CHEMBL1201862, “PubChem BioAssay data set” (2004)
